The text below walks through data of PMC8165160, “Substrate Specificities and Inhibition Pattern of the Solute Carrier Family 10 Members NTCP, ASBT and SOAT” (Frontiers in Molecular Biosciences, 2021).

pIC50: −log10 of the molar value. Like-named read-outs stand apart in the source and are kept apart here.

One assay concerns the target T1, NTCP (Homo sapiens, UniProt Q14973).
T1 sequence (Q14973 1-349): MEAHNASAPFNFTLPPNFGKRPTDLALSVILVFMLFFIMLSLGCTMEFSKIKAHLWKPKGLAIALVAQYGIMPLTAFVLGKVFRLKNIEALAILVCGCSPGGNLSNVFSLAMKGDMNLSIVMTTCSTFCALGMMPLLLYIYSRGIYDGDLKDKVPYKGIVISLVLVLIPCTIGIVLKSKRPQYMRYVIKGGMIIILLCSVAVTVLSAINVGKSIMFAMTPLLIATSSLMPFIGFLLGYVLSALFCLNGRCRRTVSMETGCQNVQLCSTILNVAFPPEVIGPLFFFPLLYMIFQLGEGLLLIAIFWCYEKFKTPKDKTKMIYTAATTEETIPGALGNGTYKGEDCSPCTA
As to the kind of experiment: Transport inhibition in NTCP-HEK293 cells.

The next assay relates to HDV. The settings on record: in vitro; ref Kirstgen et al., 2020; cited from earlier work.
Another assay concerns the target T2, ASBT (Homo sapiens, UniProt Q12908).
T2 construct: The full-length open reading frames of NTCP, ASBT, and SOAT were cloned; expressed in transfected cells; host or cells: Flp-In T-REX HEK293 (ASBT-HEK293), tetracycline-induced
T2 sequence (Q12908 1-348): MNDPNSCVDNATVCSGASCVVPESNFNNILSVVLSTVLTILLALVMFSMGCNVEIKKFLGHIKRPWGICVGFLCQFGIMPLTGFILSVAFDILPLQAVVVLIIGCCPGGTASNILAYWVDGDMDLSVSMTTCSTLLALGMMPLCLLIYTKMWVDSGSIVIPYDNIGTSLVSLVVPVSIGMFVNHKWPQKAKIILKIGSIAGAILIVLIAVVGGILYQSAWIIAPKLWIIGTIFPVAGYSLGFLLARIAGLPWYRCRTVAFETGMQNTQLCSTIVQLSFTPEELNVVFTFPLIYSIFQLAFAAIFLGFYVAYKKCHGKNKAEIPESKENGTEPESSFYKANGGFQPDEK
As to the kind of experiment: Transport inhibition in ASBT-HEK293 cells. Format: cell-based. The settings on record: triterpenoid inhibitors, 10 min after 5 min preincubation. How it is done: (§1) Cells were washed three times with PBS and were preincubated with the respective inhibitor in sodium transport buffer for 5 min at 37°C. Uptake was initiated by adding the respective radiolabeled substrate to the well and incubating for a fixed time as indicated in the figures at 37°C. Transport was terminated by removing the transport buffer and washing five-times with ice-cold PBS. Cell monolayers were lysed in 1 N NaOH with 0.1% SDS and the cell-associated radioactivity and protein content was determined as described above. For uptake inhibition with the myr-preS1 peptide the sodium transport buffer contained additionally MEM-amino acid solution (ThermoFisher) at 1:50 dilution.
(§2) All transport or inhibition graphs were generated with GraphPad Prism 6.0 (GraphPad). Determination of IC50 values was done by nonlinear regression analysis using the equation log (inhibitor) vs. response settings. If not stated otherwise in the legends all data represent means ± SD of at least triplicate determinations of representative experiments.
(§3) FIGURE 3 Inhibition of NTCP, ASBT, and SOAT with substrate inhibitors. Transport of [^3H]TC, [^3H]TLC, and [^3H]DHEAS was analyzed in NTCP-HEK293, ASBT-HEK293, and SOAT-HEK293 cells in the presence of the substrate inhibitors TC, TLC, and DHEAS at increasing concentrations ranging from 100 nM till 1000 µM. After 5 min of preincubation with the respective inhibitory compound, 200 nM [^3H]TLC, [^3H]TC or [^3H]DHEAS were added for additional 1 min and the cell lysates were analyzed by liquid scintillation counting. Unspecific uptake of HEK293-FlpIn cells was set to 0%. Carrier-specific uptake without inhibitor was set to 100%.
(§4) Transport of [^3H]TC, [^3H]TLC, and [^3H]DHEAS was analyzed in NTCP-HEK293, ASBT-HEK293, and SOAT-HEK293 cells in the presence of different supposed non-substrate triterpenoid inhibitors as indicated at increasing concentrations ranging from 100 nM till 1000 µM. After 5 min of preincubation with the respective inhibitory compound, 1 µM [^3H]TLC, [^3H]TC or [^3H]DHEAS were added for additional 10 min at 37°C and the cell lysates were analyzed by liquid scintillation counting. Experiments performed without inhibitor were set to 100%. Means of negative controls were subtracted to calculate net transport rates (expressed as percentage of control). Data represent means ± SD of quadruplicate determinations of representative experiments.

A further assay concerns the target T3, SOAT (Homo sapiens, UniProt Q3KNW5).
T3 construct: The full-length open reading frames of NTCP, ASBT, and SOAT were cloned; expressed in transfected cells; host or cells: Flp-In T-REX HEK293 (SOAT-HEK293), tetracycline-induced
T3 sequence (Q3KNW5 1-377): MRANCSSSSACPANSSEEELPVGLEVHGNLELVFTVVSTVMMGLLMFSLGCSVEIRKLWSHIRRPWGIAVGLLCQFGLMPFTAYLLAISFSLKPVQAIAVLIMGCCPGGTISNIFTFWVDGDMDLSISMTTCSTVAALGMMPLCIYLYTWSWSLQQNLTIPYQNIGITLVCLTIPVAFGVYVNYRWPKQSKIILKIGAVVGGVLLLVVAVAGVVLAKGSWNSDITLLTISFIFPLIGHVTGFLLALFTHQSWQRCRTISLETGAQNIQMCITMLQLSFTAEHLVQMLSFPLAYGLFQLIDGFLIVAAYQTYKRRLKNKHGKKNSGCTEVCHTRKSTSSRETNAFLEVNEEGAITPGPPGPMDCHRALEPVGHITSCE
As to the kind of experiment: Transport inhibition in SOAT-HEK293 cells. Type of assay: cell-based. As to conditions: triterpenoid inhibitors, 10 min after 5 min preincubation. How it is done: as §1, §2, §3, §4

As a reminder, the pIC50 is −log10 of the IC50, conventionally taken in molar units. With `C=C(C)[C@@H]1CC[C@]2(C)CC[C@]3(C)[C@H](CC[C@@H]4[C@@]5(C)CCC(=O)C(C)(C)[C@@H]5CC[C@]43C)[C@@H]12` [Lupenone], the pIC50 on NTCP (NTCP IC50, substrate [3H]DHEAS) is less than 3.00; at NTCP (NTCP IC50, substrate [3H]TC, triterpenoid inhibitors, 1 µM [3H]TC, 10 min after 5 min preincubation), 3.62; on NTCP (NTCP IC50, substrate [3H]TLC, triterpenoid inhibitors, 1 µM [3H]TLC, 10 min after 5 min preincubation), 4.93; on ASBT (1 µM [3H]TC, read-out: ASBT IC50, substrate [3H]TC) it was less than 3.00; on ASBT (1 µM [3H]TLC, read-out: ASBT IC50, substrate [3H]TLC) it was less than 3.00; on SOAT (1 µM [3H]DHEAS, read-out: SOAT IC50, substrate [3H]DHEAS), 3.18. The pIC50 on SOAT (1 µM [3H]TLC, read-out: SOAT IC50, substrate [3H]TLC) is 3.91. The “anti-HDV activity in vitro” value in the assay with HDV is recorded as “anti-HDV activity”.
